IC50 and Selectivity data for 4 compounds are collected here from patent EP4786487A1, “PEPTIDE” (Peptidream Inc, priority 2023, dated 2025).

Common to all, as to assay type: cell-based
For assay [1], the target named is T1, Myostatin (Homo sapiens, UniProt O14793).
T1 construct: active myostatin (also called mature myostatin) is a homodimer consisting of two C-terminal growth factor domains; purchased R&D systems 788-G8/CF
T1 sequence (O14793 267-375): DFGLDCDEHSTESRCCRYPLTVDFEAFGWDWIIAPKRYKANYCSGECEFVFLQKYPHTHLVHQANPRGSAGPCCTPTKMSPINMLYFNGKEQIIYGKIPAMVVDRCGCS
Kind of assay: Reporter gene assay for myostatin signaling in HepG2 cell line, Evaluation Procedure (1), myostatin inhibition. The note with it: Method A: Myostatin 10 ng/mL; read-out: IC50 (Luciferase) Myostatin HepG2. The procedure, abridged: (§1)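 IC50 derived from One-Glo luciferase luminescence after 20–24 h at 37 °C. Peptides titrated 4-fold at 0.006–100 nmol/L against myostatin or 0.12–2000 nmol/L against GDF-11 in HepG2 cells carrying a transfected CAGA12-luciferase reporter, kept in 0.1% BSA EMEM.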

Assay [2] concerns Myostatin. The assay is described as above. The following applies: Method A; GDF-11 IC50 versus Myostatin IC50. Summed up:
as §1

Another assay addresses T2, GDF-11 (Homo sapiens, UniProt O95390).
T2 construct: purchased R&D systems 1958-GD-G8/CF
T2 sequence (O95390 299-407): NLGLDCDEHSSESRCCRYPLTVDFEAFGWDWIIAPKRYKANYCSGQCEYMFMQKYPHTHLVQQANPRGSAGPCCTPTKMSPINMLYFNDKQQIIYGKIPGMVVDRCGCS
The assay is described as follows: Reporter gene assay for myostatin signaling in HepG2 cell line, Evaluation Procedure (1), GDF-11 inhibition. The following applies: Method A: GDF-11 10 ng/mL; read-out: IC50 (Luciferase) GDF-11 HepG2. The procedure, abridged: as §1
(Reporter assays use an easily measured gene product as a stand-in for the process of interest.)

The term IC50 denotes the concentration that gives 50% inhibition.

SMILES strings stand for the structures. Starred links: 1 amine or outer side, 2 acyl side, 3 side chain; linkers in the order of their positions; H or OH if unused. Positions of bridges follow the written chain, without caps; N, C: chain ends. Non-standard residues stand in square brackets, D forms with d. Residues, ends and D or L forms follow the SMILES beside them. Groups on a side chain read outwards from the residue. *: point of attachment. Phe(3-OCH2COOH) = N[C@@H](Cc1cccc(OCC(=O)O)c1)C(=O)O; Phe(4-COOH) = N[C@@H](Cc1ccc(C(=O)O)cc1)C(=O)O; Piperazinyl(4-CH2COOH) = O=C(O)CN1CCN(*)CC1; X1 = CCCCCCC[C@H](N[*:1])C(=O)[*:2]; NMeCha = CN[C@@H](CC1CCCCC1)C(=O)O; NMeF = CN[C@@H](Cc1ccccc1)C(=O)O; Cha = N[C@@H](CC1CCCCC1)C(=O)O; NMeA = CN[C@@H](C)C(=O)O; CO = O=C([*:1])[*:2]; Sar = CNCC(=O)O

For the compound `CCCCCCC[C@@H]1NC(=O)[C@H](CC2CCCCC2)N(C)C(=O)[C@H](CCCNC(=N)N)NC(=O)[C@H](Cc2ccc(C(=O)O)cc2)NC(=O)[C@H](CCCCNC(=O)N2CCN(CC(=O)O)CC2)NC(=O)[C@H]2CCCN2C(=O)[C@H]([C@@H](C)CC)NC(=O)[C@H](CC2CCCCC2)N(C)C(=O)[C@H](Cc2ccc(O)cc2)NC(=O)[C@H](Cc2c[nH]c3ccccc23)NC(=O)[C@@H](CCC(=O)O)NC(=O)[C@H](C)NC(=O)CSC[C@H](C(=O)N2CCN(CC(=O)O)CC2)NC(=O)[C@H](Cc2ccccc2)N(C)C(=O)[C@H](C)N(C)C1=O` [Myostatin_99_v248] ({CH2CO}-A[dE]WY[NMeCha]I[dP]K([CO-Piperazinyl(4-CH2COOH)])[Phe(4-COOH)]R[NMeCha][X1][NMeA][NMeF][dC]-{Piperazinyl(4-CH2COOH)}; thioether N-15), the IC50 was 21.5 nM on Myostatin [1] and 3530 nM at GDF-11. Moreover, the Selectivity in the assay with Myostatin [2] is recorded as 164.
With `CCCCCCC[C@@H]1NC(=O)[C@H](CC2CCCCC2)NC(=O)[C@H](CCCNC(=N)N)NC(=O)[C@H](Cc2ccc(C(=O)O)cc2)NC(=O)[C@H](CCCCNC(=O)N2CCN(CC(=O)O)CC2)NC(=O)CN(C)C(=O)[C@H]([C@@H](C)CC)NC(=O)[C@H](CC2CCCCC2)N(C)C(=O)[C@H](Cc2ccc(O)cc2)NC(=O)[C@H](Cc2c[nH]c3ccccc23)NC(=O)[C@@H](CCC(=O)O)NC(=O)[C@H](C)NC(=O)CSC[C@H](C(=O)N2CCN(CC(=O)O)CC2)NC(=O)[C@H](Cc2ccccc2)N(C)C(=O)[C@H](C)N(C)C1=O` [Myostatin_99_v249] ({CH2CO}-A[dE]WY[NMeCha]I[Sar]K([CO-Piperazinyl(4-CH2COOH)])[Phe(4-COOH)]R[Cha][X1][NMeA][NMeF][dC]-{Piperazinyl(4-CH2COOH)}; thioether N-15), the IC50 is 0.5 nM at Myostatin [1] and 119 nM at GDF-11. In the assay with Myostatin [2], this compound displayed a Selectivity of 237.
For the compound `CCCCCCC[C@@H]1NC(=O)[C@H](Cc2ccccc2)N(C)C(=O)[C@H](CCCNC(=N)N)NC(=O)[C@H](Cc2ccc(C(=O)O)cc2)NC(=O)[C@H](Cc2cccc(OCC(=O)O)c2)NC(=O)[C@H]2CCCN2C(=O)[C@H]([C@@H](C)CC)NC(=O)[C@H](CC2CCCCC2)N(C)C(=O)[C@H](Cc2ccc(O)cc2)NC(=O)[C@H](Cc2c[nH]c3ccccc23)NC(=O)[C@@H](CCC(=O)O)NC(=O)[C@H](C)NC(=O)CSC[C@H](C(=O)N2CCN(CC(=O)O)CC2)NC(=O)[C@H](Cc2ccccc2)N(C)C(=O)[C@H](C)N(C)C1=O` [Myostatin_99_v253] ({CH2CO}-A[dE]WY[NMeCha]I[dP][Phe(3-OCH2COOH)][Phe(4-COOH)]R[NMeF][X1][NMeA][NMeF][dC]-{Piperazinyl(4-CH2COOH)}; thioether N-15), the figures for the IC50 on Myostatin [1] and at GDF-11 were 5.7 nM and 2440 nM, respectively. In the assay with Myostatin [2], the Selectivity was 428.
As for `CCCCCCC[C@@H]1NC(=O)[C@H](Cc2ccccc2)N(C)C(=O)[C@H](CCCNC(=N)N)NC(=O)[C@H](Cc2ccc(C(=O)O)cc2)NC(=O)[C@H](Cc2cccc(OCC(=O)O)c2)NC(=O)[C@H]2CCCN2C(=O)[C@H]([C@@H](C)CC)NC(=O)[C@H](Cc2ccccc2)N(C)C(=O)[C@H](Cc2ccc(O)cc2)NC(=O)[C@H](Cc2c[nH]c3ccccc23)NC(=O)[C@@H](CCC(=O)O)NC(=O)[C@H](C)NC(=O)CSC[C@H](C(=O)N2CCN(CC(=O)O)CC2)NC(=O)[C@H](Cc2ccccc2)N(C)C(=O)[C@H](C)N(C)C1=O` [Myostatin_99_v254] ({CH2CO}-A[dE]WY[NMeF]I[dP][Phe(3-OCH2COOH)][Phe(4-COOH)]R[NMeF][X1][NMeA][NMeF][dC]-{Piperazinyl(4-CH2COOH)}; thioether N-15), the IC50 at Myostatin [1] was determined as 3.6 nM; on GDF-11, 3310 nM. For the same compound, the Selectivity in the assay with Myostatin [2] worked out at 921.
